Experimental data published in patent publication EP4752145A1, “DIAMINOCYCLOPENTYL SUBSTITUTED HETEROARYL DERIVATIVES, USE THEREOF AND PREPARATION METHOD THEREFOR” (Tuojie Biotech (Shanghai) Co., Ltd., priority 2023, dated 2025).

Tests used:
PCSK9 (biotinylated) = PCSK9 (biotinylated) (Homo sapiens, UniProt Q8NBP7); assay: Binding of compounds to PCSK9 by SPR (BIAcore S200, SA chip); conditions: for Kd: SPR, immobilized biotinylated PCSK9, test compounds diluted 3-fold from 10 µM
Protocol: Table 1. Main experimental materials and instruments
• 1) Protein: PCSK9 (biotinylated) (Acro). The protein was dissolved in water to 200 µg/mL, and the solution was stored at -80 °C. • 2) Chip: SA chip. • 3) Running buffer: 1 × HBSP + 4% DMSO + 0.1 mM CaCl2.
• 1) The chip was pre-warmed to room temperature. • 2) The required buffer was prepared and filtered through a 0.22 µm filter membrane. • 3) The chip was loaded, and parameters were written to the chip. • 4) The PCSK9 protein was diluted to 50 µg/mL in PBS. • 5) An immobilization program was set on the BIAcore S200 instrument. • 6) The immobilization program was run. • 7) The final immobilization response value was 8000 RU, and the maximum response value was 49.4 RU.
1) The compounds were serially diluted 3-fold in the running buffer. The reference compound was diluted 3-fold from 0.4 µM. The test compounds were diluted 3-fold from 10 µM. 2) A dissolution correction buffer was prepared according to the table below: Table 2. Dissolution correction buffer
3) The "LMW multi kinetics" program of the instrument was set as a running program for compound testing. • a) The association time was set at 100 s, and the dissociation time was set at 300 s. 4) The compound testing program was run.
1) Rmax = (MWanalyte/MWligand) × RL × Sm [formula] When affinity fitting was used to fit a curve, the response value of the highest concentration should be close to the fitted Rmax value for an optimal result. 2) Solvent correction and compound concentration gradients were checked. 3) The baseline, binding, and positive compound results in the test report were checked. 4) A suitable fitting method was selected according to the actual association to fit a curve. 5) Whether the fitting result met the data quality assessment criteria of the instrument was checked. Table 3. The binding of compounds of the present disclosure to PCSK9 (KD)

[1] = Stability test in hepatocytes (metabolic clearance rate); type: in vitro ADME; conditions: cryopreserved hepatocytes, mouse hepatocytes, 0.5 × 10^6 cells/mL, up to 120 min
Protocol: • 1) The test compounds and the control drug verapamil powder were dissolved in DMSO to prepare high-concentration stock solutions. Before use, the stock solutions were diluted with DMSO to prepare 100 µM working solutions. The final concentrations of the test compounds and verapamil were 1 µM. • 2) A tube of cryopreserved hepatocytes was taken. It was ensured that the hepatocytes were still in a low-temperature frozen state before thawing. The hepatocytes were quickly placed in a 37 °C water bath, gently shaken until all ice crystals were dispersed, sprayed with 70% ethanol, and then transferred to a biosafety cabinet. • 3) The contents of small tubes of hepatocytes from different species were poured into a centrifuge tube containing 50 mL of thawing culture medium and centrifuged at 100 g for 10 min. After centrifugation, the thawing culture medium was pipetted off, and a sufficient amount of incubation culture medium was added to obtain a cell suspension with a cell density of about 1.0 × 10^6 cells/mL. • 4) Hepatocytes were counted using Cellometer Vision, and the viable cell density was determined. The viability of hepatocytes must be greater than 75%. The hepatocyte suspension was diluted with the incubation culture medium to a viable cell density of 0.5 × 10^6 cells/mL. • 5) 198 µL of the viable cell suspension was transferred to a 96-well deep-well plate, and the deep-well plate was placed on a vortexer and pre-heated in an incubator for 10 min. In the experiment, the incubation was performed in duplicate. • 6) 2 µL of the 100 µM test compound or verapamil solution was added to each well to start a reaction, and the deep-well plate was placed back on the vortexer in the incubator. • 7) The samples were incubated. At 0 min, 15 min, 30 min, 60 min, 90 min, and 120 min, 25 µL of the suspension was taken, and 150 µL of acetonitrile containing an internal standard was added to stop the reaction. After 10 min of vortexing, the mixture was centrifuged at 3220 g at 4 °C for 45 min. […] After thorough mixing, the mixture was analyzed by UPLC-MS/MS.
All data calculations were performed through Microsoft Excel software. The peak areas were determined through an extracted ion chromatogram. Through linear fitting of the natural logarithm of the parent drug […] percentage versus time, the in vitro half-life (T1/2) of the parent drug was determined.
The in vitro half-life (T1/2) was calculated through the slope: In vitro T1/2 = 0.693/k [formula]
The in vitro clearance rate (in µL/min/10^6 cells) was calculated using the following formula: In vitro CLint = kV/N, [formula] • where V = the incubation volume per well (0.2 mL); • N = the number of cells per well (0.1 × 10^6 cells). […]

[2] = tested on: LDLR protein level of HepG2 cells; assay: Effect on LDLR level of HepG2 cells stimulated with PCSK9 D374Y (human LDLR ELISA); type: cell-based; conditions: 75 µM compound; for LDLR up-regulation level" (% control): 4 nM PCSK9 D374Y, 48 h, mean of three duplicate wells; for LDLR protein level result relative to reference compound 1: fold of the result of reference compound 1
Protocol: HepG2 cells were seeded in a 96-well plate at 30,000 cells/well. The next day, 4 nM PCSK9 D374Y was added to each well to stimulate cells, and the cells were treated with a test compound at the same concentration. Three duplicate wells were set for each sample. The cells were cultured at 37 °C with 5% carbon dioxide for 48 h. The cells were washed twice with PBS, and the supernatant was discarded. The cells were then placed on ice and treated with an RIPA lysis buffer containing protease and phosphatase inhibitors at 50 µL/well. The cell culture plate was frozen overnight in a -80 °C freezer, thawed, then lysed on ice for 30 min, and then centrifuged at a low temperature for 15 min. The cell lysate was diluted 20-fold, and an ELISA was performed. A sample or a reference standard was added to a coated well plate at 50 µL/well, and the plate was incubated at room temperature for 2 h. The plate was washed 4 times with a washing buffer by aspiration, and a human LDLR conjugated antibody was added at 200 µL/well. The plate was incubated at room temperature for 2 h. The washing step was repeated, and a substrate solution was added at 200 µL/well. After 30 min, a stop solution was added at 50 µL/well, and the OD was measured at 450 nm. After the LDLR concentration in the sample wells was calculated according to a standard curve, the LDLR increase rate was calculated using the formula (sample value - mean of control wells) / mean of control wells. Data were processed using GraphPad Prism 8. Table 6. The effects of reference compound 1 and example compounds at a concentration of 75 µM on the LDLR protein level of HepG2 cells

Mouse hepatocytes = assay: Metabolite testing in mouse hepatocytes (parent drug remaining); type: in vitro ADME, Mice; conditions: mouse hepatocytes (ICR/CD-1, male), 10 µM
Protocol: The objective of this experiment was to identify possible metabolites of a test compound in hepatocytes of different species and speculate about its possible metabolic pathway. The test concentration of the test compound was 10 µM.
Mouse hepatocytes were preserved in liquid nitrogen.
The test compound and the control drug verapamil powder were dissolved in DMSO to prepare high-concentration stock solutions. Before use, the stock solutions were diluted with DMSO to prepare 2 mM working solutions. The final concentrations of the test compound and verapamil were 10 µM.
• 1) Before use, the hepatocyte thawing solution and the incubation solution were placed in a 37 °C water bath and pre-heated for at least 15 min. • 2) A tube of cryopreserved hepatocytes was taken. […] After centrifugation, the thawing culture medium was pipetted off, and a sufficient amount of incubation culture medium was added to obtain a cell suspension with a cell density of about 1.5 × 10^6 cells/mL. • 4) Hepatocytes were counted using Cellometer Vision, and the viable cell density was determined. […]
• 1) 1 µL of the 2 mM test compound solution was pipetted into a 24-well incubation plate, and 199 µL of the hepatocyte suspension was then added to start a reaction. […] 60 µL of the supernatant was well mixed with 60 µL of purified water, and the mixture was then analyzed by UHPLC-MS/MS. […]

in vivo = conditions: male, C57BL6J, mouse, plasma, po, 10 mg/kg
Protocol: (§1) C57BL6J mice were used as test animals. […] Reference compound 1 and the example compound were both administered at a dose of 10 mg/kg. Procedure: Mice were intragastrically dosed with reference compound 1 and the example compound. At 0.25 h, 0.5 h, 1 h, 2 h, 4 h, 6 h, 8 h, and 24 h post-dose, blood samples (about 0.03 mL) were collected via peripheral venipuncture, placed into test tubes containing EDTA-K2, and centrifuged at around 4 °C at 4000 g per minute for 5 min to separate plasma, and the plasma was stored at -75 °C.
(§2) Determination of the content of the test compound in mouse plasma after the compound (at different concentrations) was orally administered: 10 µL of the mouse plasma collected at each time point post-dose was vortexed with 5 µL of a blank solution and 200 µL of a solution of dexamethasone (internal standard) in acetonitrile for 30 s. The mixture was centrifuged for 15 min (3900 rpm), and 12 µL of the supernatant was taken for LC/MS/MS analysis.

[3] = In vivo pharmacokinetic experiment in mice; conditions: oral, 10 mg/kg, fold of reference compound 1
Protocol: as §1, §2

Sequence of PCSK9 (biotinylated) (Q8NBP7 153-692): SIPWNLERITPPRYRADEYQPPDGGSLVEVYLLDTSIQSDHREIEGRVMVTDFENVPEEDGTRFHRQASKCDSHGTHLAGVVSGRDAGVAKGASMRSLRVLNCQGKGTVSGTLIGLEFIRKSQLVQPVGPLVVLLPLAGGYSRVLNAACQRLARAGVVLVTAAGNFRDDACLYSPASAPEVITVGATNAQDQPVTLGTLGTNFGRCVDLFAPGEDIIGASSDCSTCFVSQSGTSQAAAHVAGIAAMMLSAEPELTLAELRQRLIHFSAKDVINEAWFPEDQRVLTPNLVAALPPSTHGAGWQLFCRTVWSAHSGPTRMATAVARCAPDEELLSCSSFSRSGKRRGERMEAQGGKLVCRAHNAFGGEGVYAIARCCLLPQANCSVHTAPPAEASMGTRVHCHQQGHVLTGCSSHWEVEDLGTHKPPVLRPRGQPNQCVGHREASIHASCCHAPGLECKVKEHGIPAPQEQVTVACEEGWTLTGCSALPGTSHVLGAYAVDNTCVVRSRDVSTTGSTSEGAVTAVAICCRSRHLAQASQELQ

| Structure (SMILES) | Kd (PCSK9 (biotinylated)) [nM] | hepatocyte CLint at 1 µM [1] [µL/min/1e6 cells] | LDLR up-regulation level" (% control) [2] [% control] | also measured |
| --- | --- | --- | --- | --- |
| O=c1ccccn1-c1ccc(N[C@H]2CC[C@H](Nc3ncc4c(n3)CCC4)C2)nc1 [Example 1, 1-(6-{[(1S,3S)-3-(6,7-Dihydro-5H-cyclopenta[1,2-d]pyrimidin-2-ylamino)cyclopentyl]amino}pyridin-3-yl)-1,2-dihydropyridin-2-one] | 26.3 | 13.2 | – | – |
| O=c1ccccn1-c1ccc(N[C@H]2CC[C@H](Nc3ncc4c(n3)C(F)(F)CC4)C2)nc1 [Example 2, 1-(6-{[(1S,3S)-3-[(7,7-Difluoro-6,7-dihydro-5H-cyclopenta[1,2-d]pyrimidin-2-yl)amino]cyclopentyl]amino}pyridin-3-yl)-1,2-dihydropyridin-2-one] | 68.7 | 21 | – | – |
| O=c1ccccn1-c1ccc(N[C@H]2CC[C@H](Nc3ncc4c(n3)OCCO4)C2)nc1 [Example 3, 1-(6-{[(1S,3S)-3-(6,7-Dihydro[1,4]dioxino[3,2-d]pyrimidin-2-ylamino)cyclopentyl]amino}pyridin-3-yl)-1,2-dihydropyridin-2-one] | 75.8 | < 0.1 | 160 | binding stronger than that of the reference compound 2 (PCSK9 (biotinylated); fold of binding strength versus reference compound 2): more than 10 times; Normalized parent drug remaining proportion (%) after 240 min of incubation (Mouse hepatocytes): 98.3%; AUC(0-t) (in vivo): 48000 ng·h/mL; Cmax (in vivo): 11400 ng/mL; half-life (in vivo): 2.75 h; plasma exposure level relative to reference compound 1 [3]: ~3 times |
| O=c1cccnn1-c1ccc(N[C@H]2CC[C@H](Nc3ncc4c(n3)OCCO4)C2)nc1 [Example 5, 2-(6-{[(1S,3S)-3-(6,7-Dihydro[1,4]dioxino[3,2-d]pyrimidin-2-ylamino)cyclopentyl]amino}pyridin-3-yl)-3H,2H-1,2-pyridazin-3-one] | – | – | 188 | – |
| O=c1ccccn1-c1cnc(N[C@H]2CC[C@H](Nc3ncc4c(n3)OCCO4)C2)c(F)c1 [Example 6, 1-(5-Fluoro-6-{[(1S,3S)-3-(6,7-dihydro[1,4]dioxino[3,2-d]pyrimidin-2-ylamino)cyclopentyl]amino}pyridin-3-yl)-1,2-dihydropyridin-2-one] | – | – | 155 | – |
| O=c1ccccn1-c1cnc(N[C@H]2CC[C@H](Nc3ncc4c(n3)OCCO4)C2)cn1 [Example 7, 1-(5-{[(1S,3S)-3-(6,7-Dihydro[1,4]dioxino[3,2-d]pyrimidin-2-ylamino)cyclopentyl]amino}pyrazin-2-yl)-1,2-dihydropyridin-2-one] | – | – | – | LDLR protein level result relative to reference compound 1 [2]: 1.16 times |
| O=C1c2ccccc2CN1c1cnc(N[C@H]2CC[C@H](Nc3ncc4c(n3)OCCO4)C2)cn1 [Example 8, 2-(5-{[(1S,3S)-3-(6,7-Dihydro[1,4]dioxino[3,2-d]pyrimidin-2-ylamino)cyclopentyl]amino}pyrazin-2-yl)-2,3-dihydro-1H-isoindol-1-one] | – | – | – | LDLR protein level result relative to reference compound 1 [2]: 1.04 times |
| O=c1ccccn1-c1ccc(N[C@H]2CC[C@H](Nc3ncc4ccccc4n3)C2)nc1 [Example 11, 1-(6-{[(1S,3S)-3-(Quinazolin-2-ylamino)cyclopentyl]amino}pyridin-3-yl)-1,2-dihydrop yridin-2-one] | 180 | – | – | – |
| O=c1ccccn1-c1ccc(N[C@H]2CC[C@H](Nc3ncc4sccc4n3)C2)nc1 [Reference compound 2, reference compound] | – | 15.7 | – | – |
